{
  "source": "paper PMC6142817",
  "about": "“New Urea Derivatives Are Effective Anti-senescence Compounds Acting Most Likely via a Cytokinin-Independent Mechanism” (Frontiers in Plant Science, 2018)",
  "key": {"[1]": {"tested_on": "excised wheat leaves (chlorophyll degradation in the dark)", "assay": "Wheat leaf senescence assay (WLSA)", "type": "cell-based, Triticum aestivum cv. Hereward", "conditions": "for Chlorophyll content (% of the fresh control): 5 days in the dark, DMSO control = 0; for chlorophyll remaining, % of the initial chlorophyll: 21 days after leaf detachment, dark; for IC50: Triticum aestivum, 120 h", "experimental": "(§1) Tobacco callus, Amaranthus and Wheat leaf senescence assay (WLSA) were performed as described by Holub et al. ([1998]) including the number of repetitions in each assay. An exception to the published protocols was that the tobacco callus assay was performed in 6-well microtiter plates (with each well containing 3 ml of Murashige Skoog medium into which 0.1 g of callus was added). Each compound was tested at least twice in each assay and in a wider concentration range to obtain concentration-dependent activity curves. IC50 means compound concentration at which chlorophyll degradation is inhibited by 50% and EC50 means half the maximal effective concentration.\n(§2) Amaranthus assay evaluates the induction of betacyanin synthesis in Amaranthus (Amaranthus caudatus var. atropurpurea) cotyledons, which is induced by cytokinins (Bamberger and Mayer, [1960]). The WLSA evaluates the ability of compounds to retard chlorophyll degradation in excised wheat leaves that are kept in the dark. The wheat leaf segments (Triticum aestivum cv. Hereward) were used in all other experiments requiring wheat. Arabidopsis (Arabidopsis thaliana) leaf senescence assay was performed with detached leaves from 30-day-old plants, which were grown in soil in phytotron under standard conditions (Rivero et al., [2014]). Four leaves of a combined weight of 60 mg were placed in a six-well plate and stored in the dark for 12 days at 22°C. The leaves (except the fresh control leaves) floated on water solutions of tested compounds. Fresh control leaves were leaves detached from a plant and immediately used for chlorophyll determination. The duration of the senescence assay of Arabidopsis leaves was prolonged to highlight the difference in chlorophyll content between a negative control and treatments. Arabidopsis leaves were losing chlorophyll more slowly than wheat leaves. Chlorophyll extraction and spectrophotometric determination of its content was done according to Holub et al. ([1998])."}, "[2]": {"tested_on": "cytokinin-dependent tobacco callus", "assay": "Tobacco callus bioassay", "type": "cell-based", "conditions": "for EC50: Nicotiana tabacum", "experimental": "as §1"}, "[3]": {"tested_on": "detached Arabidopsis leaves (chlorophyll loss in the dark)", "assay": "Arabidopsis leaf senescence assay", "type": "cell-based, Arabidopsis thaliana", "conditions": "for % of the chlorophyll retained: 0.01 μM; for % of the chlorophyll retained / % more of chlorophyll retained than DMSO (negative control): 12 days in the dark; for % more of chlorophyll retained than DMSO (negative control): 1 μM; for times more effective than BA in Arabidopsis leaf senescence assay: compared to the activity of BA in 1 μM", "description": "as §2"}, "ARR5:GUS reporter gene": {"tested_on": "ARR5:GUS reporter gene", "assay": "Arabidopsis ARR5:GUS reporter gene assay", "type": "in vivo, Arabidopsis thaliana", "experimental": "Transgenic Arabidopsis plants (Arabidopsis thaliana (L.) Heynh. accession Wassilewskija) harboring the GUS reporter gene (gene for β-glucuronidase) fused to 1.6 kb of the ARR5 (PARR5−GUS) gene promoter (D'Agostino et al., [2000]) were kindly provided by professor Thomas Schmülling. The assay was performed according to Romanov et al. ([2002]). β-Glucuronidase (GUS) activity was quantitatively determined by measuring fluorescence of 4-methylumbelliferyl (MU) on a Synergy H4 hybrid reader (Biotek, Winooski, VT) with excitation and emission wavelengths of 365 and 445 nm, respectively. GUS specific activity was determined as nmol MU × mg protein^−1 × h^−1. This was calculated by dividing the relative fluorescence units (obtained per hour) by protein content of the same sample. Protein extraction was done as described by Romanov et al. ([2002]) but its content was determined using a bicinchoninic acid reagent (Smith et al., [1985]). Finally we expressed the GUS activity in samples as a relative percentage, the activity of 1 μM BA being set as 100% activation. The concentration-dependent activity curves and EC50 values (for TDZ, tZ, BA, TD-iP, and TD-tZ) were constructed using Scion image program."}, "[4]": {"tested_on": "Arabidopsis thaliana roots", "assay": "Arabidopsis root elongation assay", "type": "in vivo, Arabidopsis thaliana (wild-type Col-0)", "conditions": "0.1 μM, 14 days; for Arabidopsis root growth (length): control 3.5 cm", "experimental": "Seeds of Triticum aestivum were surface sterilized by washing with 96% ethanol (10 min) and sown in a hydroponic growing system (Araponics, Liege, Belgium) using Hoagland's solution supplemented with either 0.1 μM TDZ, 0.1 μM ASES or 0.01% DMSO (solvent control). The plants were grown in a growth chamber at 25°C with a 16/8 h light period at 130 μM m^−2s^−1. The root lengths of at least 50 plants were measured 2 weeks after the plants had been sown. Seeds of Arabidopsis thaliana (wild-type Col-0) were surface sterilized by the same procedure as seeds of wheat and sown on vertical plates using half-strength Murashige-Skoog medium (supplemented with 0.1% sucrose and 6 g/L phytagel) containing either 0.1 μM TDZ, 0.1 μM ASES or 0.01% DMSO (solvent control). After vernalization (4 days in the dark, 4°C), the plates were transferred into a growth chamber (22°C, 16/8 light/dark, 130 μM m^−2s^−1). Root elongation was scored 2 weeks after the transfer, with measurements from at least 40 plants for each treatment. The whole experiment was repeated twice."}, "[5]": {"tested_on": "photosystem II complexes in wheat leaves from WLSA", "assay": "Two-dimensional clear-native/SDS electrophoresis of membrane complexes", "design": "species or system Triticum aestivum", "conditions": "10 μM, 5 days in the dark", "experimental": "Leaves from WLSA were frozen at −80°C and then dried overnight by lyophilization at 5°C. Dried material was homogenized by bead-beating (2 × 10 s) with 2.5 mm metal beads (Mini-Beadbeater-16, BioSpec, USA). The resulting powder was mixed with a thylakoid buffer, pH 6.5, containing 25 mM MES, 10 mM MgCl2, 10 mM CaCl2, and 25% glycerol and bead-beaten (4 × 10 s). The obtained cell extract was centrifuged, after which the insoluble fraction was transferred into a new tube and solubilized with 2% dodecyl-β-maltoside for 15 min on ice. The solution was centrifuged at 30,000 × g for 10 min to remove any non-solubilized cell debris and the obtained solubilized membrane proteins were separated by electrophoresis using a 4 to 12% polyacrylamide clear native gel (Wittig et al., [2007]). Individual components of protein complexes were resolved by incubating the gel strip from the first electrophoresis in 2% SDS and 1% dithiothreitol for 30 min at room temperature, after which the proteins were separated in a second dimension by SDS-electrophoresis using a denaturing 12 to 20% polyacrylamide gel containing 7 M urea (Dobáková et al., [2009]). Proteins were stained with Coomassie Brilliant Blue, and individual protein components were identified by comparing the protein pattern with previously published results (Pagliano et al., [2012])."}, "CRE1/AHK4": {"molecular_target": "CRE1/AHK4 (Arabidopsis thaliana, UniProt Q9C5U0)", "sequence (Q9C5U0 whole entry)": "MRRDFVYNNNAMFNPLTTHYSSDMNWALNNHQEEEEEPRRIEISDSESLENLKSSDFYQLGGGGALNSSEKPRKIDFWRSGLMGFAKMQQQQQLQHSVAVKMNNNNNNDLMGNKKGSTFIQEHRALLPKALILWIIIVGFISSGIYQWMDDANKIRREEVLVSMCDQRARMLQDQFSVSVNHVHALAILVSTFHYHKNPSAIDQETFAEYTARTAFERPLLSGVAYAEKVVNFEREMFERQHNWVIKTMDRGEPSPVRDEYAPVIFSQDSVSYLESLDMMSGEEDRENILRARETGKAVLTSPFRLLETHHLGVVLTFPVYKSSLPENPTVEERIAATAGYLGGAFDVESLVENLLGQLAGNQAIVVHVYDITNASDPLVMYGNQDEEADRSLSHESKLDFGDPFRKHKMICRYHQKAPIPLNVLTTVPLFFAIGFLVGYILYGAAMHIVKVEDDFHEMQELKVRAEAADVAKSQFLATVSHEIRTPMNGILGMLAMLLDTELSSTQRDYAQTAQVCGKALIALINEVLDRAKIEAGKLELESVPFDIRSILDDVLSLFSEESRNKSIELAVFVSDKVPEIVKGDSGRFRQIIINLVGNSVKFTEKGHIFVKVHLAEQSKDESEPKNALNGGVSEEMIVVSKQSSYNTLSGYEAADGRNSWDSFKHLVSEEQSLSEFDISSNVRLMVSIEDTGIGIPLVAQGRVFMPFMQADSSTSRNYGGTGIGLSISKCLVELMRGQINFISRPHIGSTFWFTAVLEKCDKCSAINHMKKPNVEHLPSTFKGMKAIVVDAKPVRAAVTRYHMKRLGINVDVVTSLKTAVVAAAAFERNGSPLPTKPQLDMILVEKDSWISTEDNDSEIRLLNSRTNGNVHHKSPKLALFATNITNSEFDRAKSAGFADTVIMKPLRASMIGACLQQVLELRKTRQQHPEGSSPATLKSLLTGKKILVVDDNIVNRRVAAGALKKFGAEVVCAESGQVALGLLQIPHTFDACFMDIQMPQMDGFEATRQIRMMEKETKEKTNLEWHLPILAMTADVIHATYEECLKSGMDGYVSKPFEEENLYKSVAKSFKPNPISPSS", "assay": "Cytokinin receptor activation assay in E. coli (CRE1/AHK4)", "type": "cell-based", "design": "expressed in transfected cells; host or cells: Escherichia coli strain KMI001, plasmid pIN-IIIAHK4", "conditions": "E. coli bacterial receptor assay", "description": "The activity of this enzyme is finally measured in the assay and corresponds to the ability of the tested compound to activate this cytokinin receptor. Both assays were done at least twice and the presented graphs are the most representative examples."}},
  "note": "Where two headings read alike, the source gives them in different places.",
  "data": [
    {"smiles": "O=C(Nc1ccccc1)Nc1cnns1", "note": "[TDZ, 1-phenyl-3-(1,2,3-thiadiazol-5-yl)urea, reference compound]", "values": [
      {"measurement": "Chlorophyll content (% of the fresh control)", "setting": "[1]; 0.01 μM", "value": "8 (±2) %"},
      {"measurement": "Chlorophyll content (% of the fresh control)", "setting": "[1]; 0.1 μM", "value": "18 (±5) %"},
      {"measurement": "Chlorophyll content (% of the fresh control)", "setting": "[1]; 1 μM", "value": "34 (±7) %"},
      {"measurement": "Chlorophyll content (% of the fresh control)", "setting": "[1]; 10 μM", "value": "50 (±11) %"},
      {"measurement": "chlorophyll remaining, % of the initial chlorophyll", "setting": "[1]; 10 μM", "value": "approximately 15%"},
      {"measurement": "Chlorophyll content (% of the fresh control)", "setting": "[1]; 100 μM", "value": "91 (±2) %"},
      {"measurement": "IC50", "setting": "[1]; read-out: Senescence bioassay (IC50, μM)", "value": 13, "unit": "µM"},
      {"measurement": "EC50", "setting": "[2]; read-out: Tobacco callus bioassay (EC50, μM)", "value": 0.001, "unit": "µM"},
      {"measurement": "% of the chlorophyll retained", "setting": "[3]", "value": "more than 55%"},
      {"measurement": "% more of chlorophyll retained than DMSO (negative control)", "setting": "[3]", "value": 85, "unit": "%"},
      {"measurement": "times more effective than BA in Arabidopsis leaf senescence assay", "setting": "[3]", "value": "approximately 100 times"},
      {"measurement": "EC50", "setting": "ARR5:GUS reporter gene; Arabidopsis thaliana, read-out: ARR5:GUS activation EC50", "value": 4, "unit": "nM"},
      {"measurement": "reduction of Arabidopsis root growth compared to the control", "setting": "[4]", "value": 50, "unit": "%"},
      {"measurement": "Arabidopsis root growth (length)", "setting": "[4]", "value": 1.7, "unit": "cm"},
      {"measurement": "level of PSII-LHCII supercomplexes", "setting": "[5]", "value": "completely lost"}
    ]},
    {"smiles": "COCCNC(=O)Nc1cnns1", "note": "[ASES, 1-(2-methoxy-ethyl)-3-1,2,3-thiadiazol-5-yl-urea]", "values": [
      {"measurement": "Chlorophyll content (% of the fresh control)", "setting": "[1]; 0.01 μM", "value": "8 (±4) %"},
      {"measurement": "Chlorophyll content (% of the fresh control)", "setting": "[1]; 0.1 μM", "value": "25 (±7) %"},
      {"measurement": "Chlorophyll content (% of the fresh control)", "setting": "[1]; 1 μM", "value": "51 (±8) %"},
      {"measurement": "Chlorophyll content (% of the fresh control)", "setting": "[1]; 10 μM", "value": "79 (±8) %"},
      {"measurement": "chlorophyll remaining, % of the initial chlorophyll", "setting": "[1]; 10 μM", "value": "~50", "unit": "%"},
      {"measurement": "Chlorophyll content (% of the fresh control)", "setting": "[1]; 100 μM", "value": "98 (±7) %"},
      {"measurement": "IC50", "setting": "[1]; detached wheat leaves in the dark, 5 days, concentration at which chlorophyll degradation is inhibited by 50%, read-out: Senescence bioassay (IC50)", "value": 0.95, "unit": "µM"},
      {"measurement": "times more effective than TDZ in WLSA", "setting": "[1]; ratio of IC50 values", "value": "approximately 13 times"},
      {"measurement": "cell division stimulatory effect, times lower than that of TDZ", "setting": "[2]", "value": "more than 700 times"},
      {"measurement": "EC50", "setting": "[2]; half the maximal effective concentration, N.A. = not active, read-out: Tobacco callus bioassay (EC50)", "value": 0.68, "unit": "µM"},
      {"measurement": "Tobacco callus bioassay (EC50, μM)", "setting": "[2]; half the maximal effective concentration, N.A. = not active", "value": "sub-micromolar range"},
      {"measurement": "% of the chlorophyll retained", "setting": "[3]", "value": "more than 55%"},
      {"measurement": "% more of chlorophyll retained than DMSO (negative control)", "setting": "[3]", "value": 96, "unit": "%"},
      {"measurement": "times more effective than BA in Arabidopsis leaf senescence assay", "setting": "[3]", "value": "approximately 100 times"},
      {"measurement": "ARR5:GUS activity, % of BA activity", "setting": "ARR5:GUS reporter gene; compound at 10 μM, 1 μM BA = 100%", "value": "55–65%"},
      {"measurement": "Arabidopsis root growth (length)", "setting": "[4]", "value": 4.2, "unit": "cm"},
      {"measurement": "level of PSII-LHCII supercomplexes", "setting": "[5]", "value": "even higher level of PSII-LHCII supercomplexes than we observed for fresh control"},
      {"measurement": "membrane complexes / level of dimeric PSII in senescent leaves", "setting": "[5]", "value": "very similar to those of the fresh control, including high levels of dimeric PSII"},
      {"measurement": "ability to activate the CRE1/AHK4 receptor", "setting": "CRE1/AHK4", "value": "No other derivative from the series, including ASES, was able to activate"}
    ]}
  ]
}
